Test results published in patent publication US5589472A, “Diindolo compounds and pharmaceutical compositions containing them” (priority 1995, dated 1996).
Read-outs that look alike come from different tables or passages of the source.

Tests used:
Protein Kinase C ("PKC") = test: Protein Kinase C (PKC) in vitro inhibition (histone III-S phosphorylation); type: biochemical; details: partially purified rat brain PKC, 5 μM ATP, 23° C., 15 minutes
Experimental: A. Protein Kinase C ("PKC") Protocol
Protein Kinase C (PKC) was partially purified from rat brain by chromatography on DEAE-Sephacel according to Shearman et al, Methods in Enzymology […] (1989) and Bishop et al, Biochemical Pharmacology 40:2129-2135 (1990)which are hereby incorporated by reference. PKC was assayed in a reaction mixture (0.25 mL total volume) containing: 20 mM Tris-HCl (pH 7.5); 200 μg/mL histone III-S 10 mM MgCl2; 5 μM [γ-^32 ] ATP (4×10^6 cpm/nmol); 200 μM CaCl2; 32 μg/mL phosphatidylserine; 1.6 μg/mL 1-oleoyl-2-acetyl glycerol and various concentrations of compounds of formula I of the invention were added from stock solutions in dimethylsulfoxide (DMSO). The final concentration of DMSO in the reaction was 2%. Reactions were started by addition of approximately 7 μg of partially purified PKC and allowed to proceed at 23° C. for 15 minutes. Reactions were terminated by addition of 1 mL of ice-cold 15% trichloracetic acid and 1 mL of cold 0.5 mg/mL bovine serum albumin to precipitate the histone III-S substrate. After 10 minutes on ice, precipitated phosphoproteins were collected on Whatman GF/C filters using a Brandel cell harvester. Filters were placed in scintillation vials with 5 mL of Ready Safe scintillation cocktail and radioactivity trapped on the filter was quantitated by liquid scintillation counting. Percent inhibition of PKC activity was calculated relative to the activity observed in the DMSO controls.

[1] = test system: HT1080 human fibrosarcoma cells; test: Tumor Cell Invasion Assay (Matrigel); type: cell-based; details: HT-1080, @ 45 μg/mL, 5 hours at 37° C.
Experimental: Tumor Cell Invasion Assay
The cell invasion assay quantitates the ability of malignant cells to invade a reconstituted basement membrane matrix. The assay is performed essentially as described in the two articles which are cited at the end of this sentence and which are herein incorporated by reference. Kramer et al Invasion of reconstituted basement membrane matrix by metastatic tumor cells. Cancer Res. 46: […]; and Albini et al A Rapid in vitro assay for quantitating the invasive potential of tumor cells. Cancer Res. 3239-3245, 198. Modifications were made to permit evaluation of pharmacologic effectors in this system and to increase screening throughput.
Polyvinylpyrrolidone-free polycarbonate filters (25×80 mm; 8 μm pore size (Nucleopore, Pleasantan, Calif.) were coated with 100 μg human fibronectin (Boehringer-Mannheim Corp., Indianapolis, Ind.) for 1 hour, permitted to air dry 5 to 10 minutes, and then coated overnight with Matrigel (500 μg/filter; Collaborative Research, Bedford, Mass.). Filters were then rehydrated with serum-free DMEM and assembled into 48-microwell chemotaxis chambers (Neuroprobe, Cabin Johbn, Md.). See Blood et al Identification of a tumor cell receptor for VGVAPG, an elastin-derived chemotactic peptide. J. Cell Biol. 107:1987-1994, 1988 which is herein incorporated by reference. Compounds tested were placed in upper wells of the chambers with HT1080 human fibrosarcoma cells (3.5×10^4 cells/well). For primary screens the final concentration of compounds was 45 μg/ml.
Chambers were incubated for 5 hours at 37° C. in a 5% CO2 humidified atmosphere. After incubation chambers were disassembled and the filters were fixed and stained with Diff-Quik reagents (Baxter Scientific, McGaw Park, Ind.). […] The filter was then mounted between 2 glass slides and tumor cells that had invaded the Matrigel barrier in each microwell were quantitated as "% area covered by cells" with a Cue-2 Image Analysis System (Olympus Corp., Lake Success, N.Y.). When assayed under these conditions HT1080 cells (with or without Dimethylsulfoxide (DMSO) as a vehicle control) typically invade such that 34-40% surface is covered by cells and an invasion to this degree is defined as 100% invasion for the purposes of this test. Effects of compounds on the invasion are expressed as % inhibition based on the value obtained with vehicle control.

[2] = test system: Superoxide generation in human neutrophils; test: Neutrophil test: inhibition of superoxide generation in human neutrophils; type: cell-based; details: 0.25 h, SO release induced by fMLP (100 nM) or PMA (100 nM), stimulus not stated, 15 minutes at 37° C.
Description: Inhibition of Superoxide Generation in Human Neutrophils
One of the histological changes which occurs in psoriasis is infiltration of neutrophils into epidermis and dermis. Superoxide (SO) generation by neutrophils causes oxidative tissue damage during inflammatory processes. PKC plays an essential role in SO release in neutrophils. Formyl peptides (fMLP), important chemoattractants involved in cell recruitment to local inflammatory sites, promote the release of SO anion. The tumor promoting phorbol ester, phorbol-12 myristate-13-acetate (PMA), also induces SO release.
Neutrophils were prepared from human peripheral blood. SO release was induced by fMLP (100 nM) or PMA (100 nM) and measured as SO dismutase-inhibitable reduction of cytochrome c. Preincubation of the compound tested with 3-5×10^6 cells was for 15 minutes in the presence of cytochalasin B ([…]) before addition of the stimulant, fMLP or PMA. 15 minutes after stimulation at 37° C., the reaction was stopped. The quantity of SO anion release was determined as the difference between the absorbance at 550 nm in the presence and absence of SO dismutase.
Antiinflammatory activity of the compounds of the invention was determined by use of the processes set forth in the following literature which is hereby incorporated by reference. Fischer et al Carcinogenesis 11:[…]; and Gupta et al Soc. Inv. Dermotol 91:5, 486-491, 1988 and Nakadate et al J. Pharmacolo. 38 161-168,(1985); and Viaje et al Cancer Res. 37,1530-1536, 1977.

Mouse skin = test: Mouse Skin Assay (TPA-induced blister formation); type: in vivo; details: compound in acetone (25 μl), then TPA (12.5 μl); evaluated 18 hours after treatment
Experimental: Mice were treated first with compounds dissolved in acetone (25 μl), and then 30 seconds with TPA (12.5 μl). Blister formation was evaluated 18 hours after treatment. Each mouse was scored on a scale of 1-4 where 4 equals presence of a complete blister, 3 equals slight reduction in blister formation, 2 equals a 50% reduction in blister formation and 1 equals a complete absence of blisters.

[3] = read-out: IN VITRO INHIBITION OF PKC IC50 (nanomolar) except where otherwise indicated
[4] = read-out: IN VITRO INHIBITION OF PKC IC50 (unit indicated in cell)

Row | Structure (SMILES) | IC50 (Protein Kinase C ("PKC"); [3]) | inhibition at 45 µg/mL [1] | IC50 [2] | Mouse Skin (active/inactive by visual evaluation of blister formation) (Mouse skin) | IC50 (Protein Kinase C ("PKC"); [4])
1 | CN1Cn2c3ccccc3c3c4c(c5c6ccccc6n(c5c32)C1)C(=O)NC4=N [Compound 5] | 150 nM | 46% |  |  | 
2 | CN(C)CCN1Cn2c3ccccc3c3c4c(c5c6ccccc6n(c5c32)C1)C(=O)NC4=O [Compound 9] | 120 nM | 52% |  |  | 
3 | O=C1NCc2c1c1c3ccccc3n3c1c1c2c2ccccc2n1CS(=O)(=O)C3 [Compound 23] | 5 nM | 57% | 900 nM | active | 
4 | COCCOCCOCCN1Cn2c3ccccc3c3c4c(c5c6ccccc6n(c5c32)C1)C(=O)NC4=O [Compound 12] | ~100 nM | 20% |  |  | 
5 | N=C1NC(=O)c2c1c1c3ccccc3n3c1c1c2c2ccccc2n1CSC3 [Compound 17] | 24 nM | 53% | > 10000 nM |  | 
6 | CN1Cn2c3ccccc3c3c4c(c5c6ccccc6n(c5c32)C1)C(=O)NC4 [Compound 13] | 90 nM | 26% |  |  | 
7 | COCCOCCOCCN1Cn2c3ccccc3c3c4c(c5c6ccccc6n(c5c32)C1)C(=O)NC4=N [Compound 11] | ~500 nM | 42% |  |  | 
8 | N=C1NC(=O)c2c1c1c3ccccc3n3c1c1c2c2ccccc2n1COC3 [Compound 15] | 62 nM | 30% |  |  | 
9 | N=C1NC(=O)c2c1c1c3ccccc3n3c1c1c2c2ccccc2n1CN(Cc1ccccc1)C3 [Compound 1] |  |  |  |  | > 5000 nM
10 | O=C1NC(=O)c2c1c1c3ccccc3n3c1c1c2c2ccccc2n1CN(CCO)C3 [Compound 10] | 17 nM | 72% |  |  | 
11 | O=C1NC(=O)c2c1c1c3ccccc3n3c1c1c2c2ccccc2n1CSC3 [Compound 18] | 14 nM | 18% | > 10000 nM |  | 
12 | O=C1NC(=O)c2c1c1c3ccccc3n3c1c1c2c2ccccc2n1CNC3 [Compound 4] | 145 nM | 86% |  |  | 
13 | O=C1NC(=O)c2c1c1c3ccccc3n3c1c1c2c2ccccc2n1C[S+]([O-])C3 [Compound 20] | 19 nM |  | > 10000 nM |  | 
14 | C[C@@H]1n2c3ccccc3c3c4c(c5c6ccccc6n(c5c32)[C@H](C)S1(=O)=O)C(=O)NC4=O [cis-25] | 2.4 nM |  |  |  | 
15 | O=C1NCc2c1c1c3ccccc3n3c1c1c2c2ccccc2n1CSC3 [Compound 19] | 7 nM | 100% |  |  | 
16 | O=C1NC(=O)c2c1c1c3ccccc3n3c1c1c2c2ccccc2n1CS(=O)(=O)C3 [Compound 26] | 2 nM |  | 1600 nM | inactive | 
17 | O=C1NC(=O)c2c1c1c3ccccc3n3c1c1c2c2ccccc2n1CN(O)C3 [Compound 3] | 90 nM | 48% |  |  | 
18 | C[C@@H]1n2c3ccccc3c3c4c(c5c6ccccc6n(c5c32)[C@@H](C)S1(=O)=O)C(=O)NC4=O (relative stereo) [trans-25] | 120 nM |  |  |  | 
19 | CN(C)CCN1Cn2c3ccccc3c3c4c(c5c6ccccc6n(c5c32)C1)C(=O)NC4=N [Compound 8] | 160 nM | 46% |  |  | 
20 | CN1Cn2c3ccccc3c3c4c(c5c6ccccc6n(c5c32)C1)C(=O)NC4=O [Compound 6] | 86 nM | 66% |  |  | 
21 | O=C1NC(=O)c2c1c1c3ccccc3n3c1c1c2c2ccccc2n1CN(Cc1ccccc1)C3 [Compound 2] |  | 35% |  |  | > 50000 nM
22 | O=C1NC(=O)c2c1c1c3ccccc3n3c1c1c2c2ccccc2n1COC3 [Compound 16] | 11 nM | 46% |  |  | 
23 | O=C(O)CN1Cn2c3ccccc3c3c4c(c5c6ccccc6n(c5c32)C1)C(=O)NC4=O [Compound 7] | 480 nM | 0% |  |  | 
